# Where “and” joins values, the source holds several entries; their conditions need not be identical. Equal entries are not always repeated.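 A five-concentration, 48-hour dose response in 96-well plates underlies each endpoint, interpolated linearly between surrounding concentrations. At the GI50, growth is halved. TGI: total growth inhibition.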
# Tests used:
# Assay in all cases: NCI anticancer screen, dose series, 48 h
# [1] = system: HOP-62 NSCLC
# [2] = system: DMS 114 small cell lung
# [3] = system: HL-60(TB) leukemia
# [4] = system: KM20L2 colon
# [5] = system: SN12C renal
# [6] = system: HOP-92 NSCLC
# [7] = system: NCI-H226 lung
# [8] = system: OVCAR-8 ovarian
# [9] = system: PC-3 prostate
# [10] = system: SK-MEL-2 melanoma
SMILES,GI50 [1],TGI [1],TGI [2],TGI [3],TGI [4],TGI [5],TGI [6],TGI [7],TGI [8],TGI [9],TGI [10],GI50 [2],GI50 [3],GI50 [4],GI50 [6],GI50 [8],GI50 [9],GI50 [10]
CC(CN1CC(=O)NC(=O)C1)N1CC(=O)NC(=O)C1 (centres undefined),114 µM,709 µM,409 µM,690 µM,> 750 µM,> 750 µM,732 µM,505 µM,> 750 µM,> 750 µM,741 µM,–,–,–,–,–,–,–
CN(C)C(=S)/N=c1\ssc(=S)n1Cc1cccs1,–,81.3 µM,5.6 µM,13.9 µM,3.57 µM,> 100 µM,> 89.1 µM,> 100 µM,52.9 µM,> 100 µM,25.7 µM,–,–,–,–,–,–,–
COC1(OC)C2(Cl)C(Cl)=C(Cl)C1(Cl)C1c3ccc(C(C)=O)c4cccc(c34)C12 (centres undefined),–,> 100 µM,> 100 µM,47.3 µM,87.4 µM,> 100 µM,22.1 µM,81.4 µM,> 100 µM,> 100 µM,50.1 µM,–,–,–,–,–,–,–
COC1CC(C)C(OC)c2cc(O)cc(c2O)NC(=O)/C(C)=C/C=C\C(C)C(OC(N)=O)/C(C)=C\C(C)C1OC (centres undefined),0.413 µM,36.9 µM and 12.2 µM,23.2 µM and 5.28 µM,1.48 µM and 0.578 µM,–,15.1 µM and 8.7 µM,12.1 µM and 2.79 µM,24.3 µM and 24.4 µM,11.8 µM and 26.9 µM,16.4 µM and 8.51 µM,16 µM and 11.9 µM,0.202 µM,0.075 µM and 0.227 µM and 0.0937 µM,0.21 µM,0.234 µM,0.704 µM and 0.602 µM,0.201 µM and 0.44 µM,0.683 µM and 1.16 µM
CCN(CCCl)CCCCCNc1c2ccccc2nc2ccc(OC)cc12,–,8.38 µM,1.91 µM,0.266 µM,4.38 µM,1.78 µM,3.21 µM,2.3 µM,1.96 µM,–,2.7 µM,–,–,–,–,–,–,–
O=C1C=CC(=O)C2C1Cc1ccccc1C2c1ccccc1 (centres undefined),–,> 100 µM,42.3 µM,53.1 µM,> 100 µM,> 100 µM,85 µM,> 100 µM,78 µM,–,90.1 µM,–,–,–,–,–,–,–
O=c1nc(NC(c2ccccc2)(c2ccccc2)c2ccccc2)ccn1CCCl,–,40.9 µM,37.9 µM,54.9 µM,33 µM,33 µM,27.6 µM,42.8 µM,29.7 µM,–,29.9 µM,–,–,–,–,–,–,–
O=C1OC(c2ccccc2)(c2ccccc2)c2ccc3ccc(F)cc3c21,–,> 100 µM,> 100 µM,> 100 µM,> 100 µM,> 100 µM,> 100 µM,> 100 µM,> 100 µM,–,> 100 µM,–,–,–,–,–,–,–

# From PubChem BioAssay (NCI)
